The test system of experiment [1] is BDF1 female mice treated with cisplatin. Kind of experiment: Effect of pretreatment on BUN/creatinine, AST/ALT, WBC/platelet in blood of cisplatin-treated mice (Example 2). Conditions: daily ×5, blood day 6. The experiment is classed as in vivo. The protocol:
Gp 1: medium (saline). Gp 2: saline followed by cisplatin (2.5 mg/kg) 30 min later. Gp 3: UTL-5g (15 mg/kg) followed by cisplatin (2.5 mg/kg) 30 min later. Gp 4: UTL-5g (30 mg/kg) followed by cisplatin (2.5 mg/kg) 30 min later. Gp 5: UTL-5g (60 mg/kg) followed by cisplatin (2.5 mg/kg) 30 min later. Gp 6: amifostine (200 mg/kg) followed by cisplatin (2.5 mg/kg) 30 min later; Gp 7: saline followed by cisplatin (5 mg/kg) 30 min later. Gp 1-Gp 6 were daily ×5, but Gp 7 was by single dose on day 0 only. StDev is shown for each Gp (n=5 for each group except for Gp 7, n=3). ** two-tailed p<0.005 vs medium control by Student's t-test.
(§1) Gp 1: medium (saline). Gp 2: saline followed by cisplatin (2.5 mg/kg) 30 min later. Gp 3: UTL-5g (15 mg/kg) followed by cisplatin 30 min later. Gp 4: UTL-5g (30 mg/kg) followed by cisplatin (2.5 mg/kg) 30 min later. Gp 5: UTL-5g (60 mg/kg) followed by cisplatin (2.5 mg/kg) 30 min later. Gp 6: amifostine (200 mg/kg) followed by cisplatin (2.5 mg/kg) 30 min later. Gp 7: saline followed by cisplatin (5 mg/kg) 30 min later. Gp 1-Gp 6 were daily ×5, but Gp 7 was by single dose on day 0 only. StDev is shown for each Gp (n=5 for each group except n=4 for Gp 7). * P<0.05, ** p<0.005 vs. medium control (Gp 1) by Student's t-test (two-tailed).
as §1, with “p<0.005, *** p<0.0005” for “p<0.005”, “control” for “control (Gp 1)”
BDF1 female mice (average wt ˜20 g/mouse) were randomly divided into the following groups (5 mice per group) and each treated daily ×5 (starting from day 0) by ip injection (0.25 mL/mouse), except in Gp 7, each was treated by a single dose ip injection (0.25 mL/mouse) on day 0 only, as described below • Gp 1: medium (saline) followed by medium (saline) 30 min later • Gp 2: medium (saline) followed by cisplatin (2.5 mg/kg) 30 min later • Gp 3: UTL-5g (15 mg/kg) followed by cisplatin (2.5 mg/kg) 30 min later • Gp 4: UTL-5g (30 mg/kg) followed by cisplatin (2.5 mg/kg) 30 min later • Gp 5: UTL-5g (60 mg/kg) followed by cisplatin (2.5 mg/kg) 30 min later • Gp 6: amifostine (200 mg/kg) followed by cisplatin (2.5 mg/kg) 30 min later • Gp 7: medium (saline) followed by cisplatin (5 mg/kg) 30 min later (single dose on Day 0 only)
Preparation of the test samples are described below: • Cisplatin: Cisplatin was dissolved in saline (0.2 and 0.4 mg/mL in saline) for 2.5 and 5 mg/kg ip injection. • UTL-5g: The stock solution of UTL-5g was first dissolved in DMSO and equal volume of Cremophor/propylene glycol (60/40 v/v) was added to make a stock solution. Immediately before the injection, saline was added to this temporary solution at a 90:10 v/v ratio and mixed thoroughly. Three concentrations for ip injection were prepared (1.25, 2.5, and 5 mg/mL) so that the doses are equivalent to 15, 30, and 60 mg/kg with a 0.25 mL injection. • Amifostine: The stock solution of amifostine was dissolved in saline to the desired concentration (16 mg/mL) for the 200 mg/kg injection.
Cardiac puncture was used to obtain blood from each mouse on day 6. To assess liver/kidney protection by UTL-5g, all blood samples were analyzed for BUN, creatinine, AST, and ALT by the chemistry lab at Henry Ford Health System. Unopette® (Becton Dickinson, Franklin Lakes, N.J.) diluting systems and a hemocytometer were used to assess the effect of UTL-5g on WBC and platelet counts in blood.

The next experiment has as its system TNF-α. In words: TNF-α levels in plasma of cisplatin-treated mice (commercial assay kit, eBioscience). Format: in vivo. Conditions: UTL-5g 15, 30, 60 mg/kg ip 30 min before cisplatin 2.5 mg/kg, daily ×5; pooled plasma. As for the experimental part: FIG. 5. Effect of UTL-5g on TNF-α levels in plasma for mice treated with cisplatin. Gp 1, medium control (saline) only; Gp 2, saline followed by cisplatin (2.5 mg/kg) 30 min later; Gp 3, UTL-5g (15 mg/kg) followed by cisplatin 30 min later; Gp 4, UTL-5g (30 mg/kg) followed by cisplatin 30 min later; Gp 5, UTL-5g (60 mg/kg) followed by cisplatin 30 min later. Y axis represents the relative levels of TNF-α assuming 0% for Gp 1 (Control). Level of TNF-α on the figure is based on the average of 2 readings. […]
Using the samples from the same animal study, TNF-α levels in plasma were analyzed. […]

Setting [2] is: UTL-5g 15, 30, 60 mg/kg ip 30 min before cisplatin 2.5 mg/kg.
The mark [3] stands for this setting: ip 30 min before cisplatin 2.5 mg/kg, UTL-5g 15, 30, 60 mg/kg, amifostine 200 mg/kg.

Entries after “also recorded” stand apart in the source; their conditions may differ.

With `Cc1cc(C(=O)Nc2ccc(Cl)cc2Cl)no1` [UTL-5g], the “platelet count relative to control” value in experiment [1] (UTL-5g 60 mg/kg ip 30 min before cisplatin 2.5 mg/kg) is listed as > 3 times of the control. In experiment [1] (setting [2]), the “ALT levels, effect of pretreatment” value was “also reduced by UTL-5g; also recorded: lowered the elevated levels” and the “AST levels, effect of pretreatment” value is given as “reduced by UTL-5g; also recorded: lowered the elevated levels”. Moreover, the “WBC count, effect of pretreatment” value in experiment [1] (UTL-5g ip 30 min before cisplatin 2.5 mg/kg) is “did not significantly increase the WBC count”. Besides, in experiment [1] (setting [3]), the “BUN levels, effect of pretreatment” value is listed as “suppressed by UTL-5g in a dose-dependent manner; also recorded: lowered the elevated levels” and the “creatinine, effect of pretreatment” value is “Essentially the same results; also recorded: lowered the elevated levels”. The “platelet count, effect of pretreatment” value in experiment [1] (ip 30 min before cisplatin 2.5 mg/kg, UTL-5g 15, 30, 60 mg/kg, amifostine 200 mg/kg, vs Gp 1 (Control)) is reported as “increased platelet count in a dose-dependent manner”. In addition, the “TNF-α in plasma, effect of pretreatment” value in the experiment on TNF-α was “lowered elevated TNF-α in plasma in a dose-dependent manner; also recorded: lowered the elevated levels of blood TNF-α induced by cisplatin in a dose dependent manner”.
